This note sets out measurements from US8809232B2, “Herbicidal compositions comprising 4-amino-3-chloro-5-fluoro-6-(4-chloro-2-fluoro-3-methoxyphenyl) pyridine-2-carboxylic acid or a derivative thereof and halosulfuron, pyrazosulfuron and esprocarb” (Dow Agrosciences LLC, priority 2012, dated 2014).

Where “and” joins values, the source holds several entries; their conditions need not be identical. Identical values can stand only once.

One assay relates to ECHOR. In words: In-water applied herbicidal mixtures, greenhouse, transplanted paddy rice weeds. The class given is in vivo, Echinochloa oryzoides (Ard.) Fritsch. The method, then:
(§1) Weed seeds or nutlets of the desired test plant species were planted in puddled soil (mud) prepared by mixing a shredded, non-sterilized mineral soil (50.5 percent silt, 25.5 percent clay, and 24 percent sand, with a pH of about 7.6 and an organic matter content of about 2.9 percent) and water at a 1:1 volumetric ratio. The prepared mud was dispensed in 365 mL aliquots into 16-ounce (oz.) non-perforated plastic pots with a surface area of 86.59 square centimeters (cm^2) leaving a headspace of 3 centimeters (cm) in each pot Mud was allowed to dry overnight prior to planting or transplanting. Rice seeds were planted in Sun Gro MetroMix® 306 planting mixture, which typically has a pH of 6.0 to 6.8 and an organic matter content of about 30 percent, in plastic plug trays. Seedlings at the second or third leaf stage of growth were transplanted into 840 mL of mud contained in 32-oz. non-perforated plastic pots with a surface area of 86.59 cm^2 4 days prior to herbicide application. The paddy was created by filling the headspace of the pots with 2.5 to 3 cm of water. When required to ensure good germination and healthy plants, a fungicide treatment and/or other chemical or physical treatment was applied. The plants were grown for 4-22 days in a greenhouse with an approximate 14 hr photoperiod which was maintained at about 29′C during the day and 26° C. during the night. Nutrients were added as Osmocote® (19:6:12, N:P:K^+ minor nutrients) at 2 g per 16-oz. pot and 4 g per 32-oz. pot. Water was added on a regular basis to maintain the paddy flood, and supplemental lighting was provided with overhead metal halide 1000-Watt lamps as necessary. The plants were employed for testing when they reached the first through fourth true leaf stage.
(§2) Treatments consisted of the acid or esters of 4-amino-3-chloro-5-fluoro-6-(4-chloro-2-fluoro-3-methoxy-phenyl)pyridine-2-carboxylic acid (compound A) each formulated as an SC (suspension concentrate) and various herbicidal components alone and in combination. Forms of compound A were applied on an acid equivalent basis.
(§3) Other herbicidal components were applied on an active ingredient basis and included acetolactate synthase (ALS)-inhibiting herbicides formulated as Permit® 75 WDG, pyrazosulfuron-ethyl formulated as Agreen® WG or Sirius® G, and VLCFA inhibiting herbicide esprocarb (technical grade material).
(§4) Treatment requirements for each compound or herbicidal component were calculated based upon the rates being tested, the concentration of active ingredient or acid equivalent in the formulation, an application volume of 2 mL per component per pot, and an application area of 86.59 cm^2 per pot.
(§5) For formulated compounds, a measured amount was placed in an individual 100 or 200 mL glass vial and was dissolved in a volume of 1.25% (v/v) Agri-Dex® crop oil concentrate to obtain application solutions.
(§6) For technical grade compounds, a weighed amount was placed in an individual 100 to 200 mL glass vial and was dissolved in a volume of acetone to obtain concentrated stock solutions. […] The concentrated stock solutions obtained were diluted with an equivalent volume of an aqueous mixture containing 2.5% (v/v) crop oil concentrate so that the final application solutions contained 1.25% (v/v) crop oil concentrate.
(§7) Applications were made by injecting with a pipetter appropriate amounts of the application solutions, individually and sequentially, into the aqueous layer of the paddy. Control plants were treated in the same manner with the solvent blank. Applications were made so that all treated plant material received the same concentrations of acetone and crop oil concentrate.
(§8) The treated plants and control plants were placed in a greenhouse as described above and water was added as needed to maintain a paddy flood. […]

Another assay concerns BRAPP. In words: Post-emergence foliar-applied herbicidal mixtures, greenhouse, direct seeded rice weeds. The class given is in vivo. An excerpt:
(§9) Seeds or nutlets of the desired test plant species were planted in a soil matrix prepared by mixing a loam or sandy loam soil (e.g., 28.6 percent silt, 18.8 percent clay, and 52.6 percent sand, with a pH of about 5.8 and an organic matter content of about 1.8 percent) and calcareous grit in an 80 to 20 ratio. The soil matrix was contained in plastic pots with a volume of 1 quart and a surface area of 83.6 square centimeters (cm^2). When required to ensure good germination and healthy plants, a fungicide treatment and/or other chemical or physical treatment was applied. The plants were grown for 8-22 days in a greenhouse with an approximate 14 hr photoperiod which was maintained at about 29° C. during the day and 26° C. during the night. Nutrients (Peters Excel® 15-5-15 5-Ca 2-Mg and iron chelate) were applied in the irrigation solution as needed and water was added on a regular basis. Supplemental lighting was provided with overhead metal halide 1000-Watt lamps as necessary. The plants were employed for testing when they reached the first through fourth true leaf stage.
(§10) Treatments consisted of the acid or esters of 4-amino-3-chloro-5-fluoro-6-(4-chloro-2-fluoro-3-methoxy-phenyl)pyridine-2-carboxylic acid (Compound A), each formulated as an SC (suspension concentrate), and various herbicidal components alone and in combination. Forms of compound A were applied on an acid equivalent basis.
(§11) Other herbicidal components were applied on an active ingredient basis and included the acetolactate synthase (ALS)-inhibiting herbicides halosulfuron-methyl formulated as Permit® 75 WDG, pyrazosulfuron-ethyl formulated as Agreen® WG or Sirius® G, and the VLCFA inhibiting herbicide esprocarb (technical grade material).
(§12) Treatment requirements were calculated based upon the rates being tested, the concentration of active ingredient or acid equivalent in the formulation, and a 12 mL application volume at a rate of 187 L/ha.
(§13) For treatments comprised of formulated compounds, measured amounts of compounds were placed individually in 25 mL glass vials and diluted in a volume of 1.25% (v/v) Agri-Dex® crop oil concentrated to obtain 12× stock solutions. […] Application solutions were prepared by adding an appropriate amount of each stock solution (e.g., 1 mL) and diluted to the appropriate final concentrations with the addition of 10 mL of an aqueous mixture of 1.25% (v/v) crop oil concentrate so that the final spray solutions contained 1.25+/−0.05% (v/v) crop oil concentrate.
(§14) For treatments comprised of technical compounds, weighed amounts can be placed individually in 25 mL glass vials and dissolved in a volume of 97:3 v/v acetone/DMSO to obtain 12× stock solutions. […] Application solutions can be prepared by adding an appropriate amount of each stock solution (e.g., 1 mL) and diluted to the appropriate final concentrations with the addition of 10 mL of an aqueous mixture of 1.5% (v/v) crop oil concentrate so that the final spray solutions contain 1.25% (v/v) crop oil concentrate. When technical materials are used, the concentrated stock solutions can be added to the spray solutions so that the final acetone and DMSO concentrations of the application solutions are 16.2% and 0.5%, respectively.
(§15) For treatments comprised of formulated and technical compounds, weighed amounts of the technical materials were placed individually in 25 mL glass vials and dissolved in a volume of 97:3 v/v acetone/DMSO to obtain 12× stock solutions, and measured amounts of the formulated compounds were placed individually in 25 mL glass vials and diluted in a volume of 1.5% (v/v) crop oil concentrate or water to obtain 12× stock solutions. […] Application solutions were prepared by adding an appropriate amount of each stock solution (e.g., 1 mL) and diluted to the appropriate final concentrations with the addition of an appropriate amount of an aqueous mixture of 1.5% (v/v) crop oil concentrate so that the final spray solutions contained 1.25% (v/v) crop oil concentrate. […]

The next assay has as its system DIGSA. Described as above. It counts as in vivo, Digitaria sanguinalis (L.) Scop.
Text: as §9, §10, §11, §12, §13, §14, §15

Another assay has as its system CYPRO. In words: In-water applied herbicidal mixtures, greenhouse, transplanted paddy rice weeds. It counts as in vivo, Cyperus rotundus L. The method, then:
as §1, §2, §3, §4, §5, §6, §7, §8

The test system of another assay is SCPMA. The description is as above. The class given is in vivo. The method, then: as §1, §2, §3, §4, §5, §6, §7, §8
The subject of a further assay is CYPIR. In words: Post-emergence foliar-applied herbicidal mixtures, greenhouse, direct seeded rice weeds. The class given is in vivo, Cyperus iria L.
Text: as §9, §10, §11, §12
(§16) For treatments comprised of formulated compounds, measured amounts of compounds were placed individually in 25 mL glass vials and diluted in a volume of 1.25% (v/v) Agri-Dex® crop oil concentrated to obtain 12× stock solutions. […]
(§17) For treatments comprised of formulated and technical compounds, weighed amounts of the technical materials were placed individually in 25 mL glass vials and dissolved in a volume of 97:3 v/v acetone/DMSO to obtain 12× stock solutions, and measured amounts of the formulated compounds were placed individually in 25 mL glass vials and diluted in a volume of 1.5% (v/v) crop oil concentrate or water to obtain 12× stock solutions. […]

Assay [1] has as its system LEFCH. The assay is described as above. The class given is in vivo, Leptochloa chinensis (L.) Nees.
Text: as §9, §10, §11, §12, §13, §14, §15

In the next assay the test system is SCPJU. Described as above. It counts as in vivo, Schoenoplectus juncoides (Roxb.) Palla. Particulars: 8.75 g ae/ha.
Text: as §9, with “stage. […]” for “stage.”
as §12, §16, §17

For assay [2], the system named is LEFCH. The assay can be described thus: In-water applied herbicidal mixtures, greenhouse, transplanted paddy rice weeds. It counts as in vivo, Leptochloa chinensis (L.) Nees. The method, then:
as §1, with “Water was added on a regular basis to maintain the paddy flood, and supplemental lighting was provided with overhead metal halide 1000-Watt lamps as necessary. The plants were employed for testing when they reached the first through fourth true leaf stage.” left out
as §4
For formulated compounds, a measured amount was placed in an individual 100 or 200 mL glass vial and was dissolved in a volume of 1.25% (v/v) Agri-Dex® crop oil concentrate to obtain application solutions. […]

The next assay deals with FIMMI. The description is as above. It counts as in vivo, Fimbristylis miliacea (L.) Vahl. Particulars: 4.38 g ae/ha. On the procedure:
as §1, §2, §3, §4, §5, §6
Applications were made by injecting with a pipetter appropriate amounts of the application solutions, individually and sequentially, into the aqueous layer of the paddy. […]

Take `COc1c(Cl)ccc(-c2nc(C(=O)OCc3ccccc3)c(Cl)c(N)c2F)c1F` [Compound A Benzyl Ester]: the “Visual Weed Control (%) - 21 DAA ECHOR Obs” value in the assay on ECHOR (4.38 g ae/ha) was determined as 0%; with ECHOR (8.75 g ae/ha), 10%. Also, the “Visual Weed Control (%) - 20 DAA ECHOR Obs” value in the assay on ECHOR (35 g ae/ha) was 73%. Moreover, the “Visual Weed Control (%) - 20 DAA BRAPP Obs” value with BRAPP (4.38 g ae/ha) was determined as 40%; in the assay with BRAPP (8.75 g ae/ha), 70%. Further, the “Visual Weed Control (%) - 21 DAA BRAPP Obs” value in the assay on BRAPP (4.38 g ae/ha) was 50%. Further, the “Visual Weed Control (%) - 21 DAA DIGSA Obs” value with DIGSA (17.5 g ae/ha) was 23%; in the assay on DIGSA (35 g ae/ha), 38%. For the same compound, the “Visual Weed Control (%) - 21 DAA CYPRO Obs” value is 20% and 30% in the assay on CYPRO (4.38 g ae/ha); 65% and 60% with CYPRO (8.75 g ae/ha). For the same compound, the “Visual Weed Control (%) - 22 DAA SCPMA Obs” value with SCPMA (4.38 g ae/ha), with SCPMA (8.75 g ae/ha) and in the assay with SCPMA (17.5 g ae/ha) was 0% throughout. Further, the “Visual Weed Control (%) - 20 DAA SCPMA Obs” value in the assay with SCPMA (70 g ae/ha) worked out at 0%. Besides, the “Visual Weed Control (%) - 22 DAA CYPIR Obs” value is recorded as 25% in the assay with CYPIR (4.38 g ae/ha) and 50% with CYPIR (8.75 g ae/ha). The “Visual Weed Control (%) - 20 DAA LEFCH Obs” value with LEFCH [1] (4.38 g ae/ha) amounted to 0%; in the assay on LEFCH [1] (8.75 g ae/ha) it was 20%; in the assay on LEFCH [1] (17.5 g ae/ha) it was 40%. Besides, the “Visual Weed Control (%) - 22 DAA SCPJU Obs” value in the assay with SCPJU amounted to 80%. For the same compound, the “Visual Weed Control (%) - 22 DAA LEFCH Obs” value with LEFCH [2] (4.38 g ae/ha) is reported as 0%. The “Visual Weed Control (%) - 21 DAA FIMMI Obs” value in the assay on FIMMI is listed as 20%.

`CCOC(=O)c1cnn(C)c1S(=O)(=O)NC(=O)Nc1nc(OC)cc(OC)n1` [Pyrazosulfuron-ethyl, ethyl 5-[[[[(4,6-dimethoxy-2-pyrimidinyl)amino]carbonyl]amino]sulfonyl]-1-methyl-1H-pyrazole-4-carboxylate, reference compound]: the “Visual Weed Control (%) - 22 DAA ECHOR Obs” value with ECHOR (17.5 g ai/ha (Sirius G)) and with ECHOR (35 g ai/ha (Sirius G)) was 0% each time. Besides, the “Visual Weed Control (%) - 20 DAA ECHOR Obs” value in the assay with ECHOR (70 g ai/ha (Sirius G)) came to 70%. The “Visual Weed Control (%) - 21 DAA BRAPP Obs” value is 0% with BRAPP (15 g ai/ha (Agreen WG)), 0% in the assay with BRAPP (30 g ai/ha (Agreen WG)) and 10% with BRAPP (60 g ai/ha (Agreen WG)). In the assay on DIGSA (120 g ai/ha (Agreen WG)), the “Visual Weed Control (%) - 20 DAA DIGSA Obs” value was found to be 23%. Besides, the “Visual Weed Control (%) - 21 DAA DIGSA Obs” value in the assay with DIGSA (120 g ai/ha (Agreen WG)) worked out at 23%. Moreover, the “Visual Weed Control (%) - 22 DAA SCPMA Obs” value in the assay on SCPMA (17.5 g ai/ha (Sirius G)) is 80%; in the assay on SCPMA (35 g ai/ha (Sirius G)), 70%. Further, the “Visual Weed Control (%) - 22 DAA LEFCH Obs” value in the assay with LEFCH [2] (17.5 g ai/ha (Sirius G)) and with LEFCH [2] (35 g ai/ha (Sirius G)) was 0% each time.
